The values below come from ChEMBL document CHEMBL3507680, “University of Dundee, Gates Library screen for HepG2 cell viability”.

The series is described as follows: Human HepG2 cell viability assay in 384 well format. The note with it: HepG2 cells, read-out: Inhibition. It counts as toxicity, cell-based. Also on record: dose 125 nL, time 70.5 hour; cytotoxicity at 70.5 h: concentration not given beside the values.

Consider `CC(=O)N1CC2(CCCC2)c2ccccc21`, for which the cytotoxicity at 70.5 h is -3.2%. Under `CN(CCOc1ccccc1F)S(=O)(=O)CC1CCOCC1` stands -8.77%; under `NC(=O)CCCNC(=O)CCc1cc(Br)cs1`, -5.18%. `O=C(C1CCOc2ccccc21)N1CCOc2cccc(F)c21` (stereo not drawn): the cytotoxicity at 70.5 h came to 4.13%. As for `CC(=O)N1CCN(c2ccccc2CNc2cc(F)cc(F)c2)CC1`, the cytotoxicity at 70.5 h was found to be 13.8%. With `O=S(=O)(c1ccc2c(c1)CCC2)N1CCCC(Cn2cncn2)C1` (stereo not drawn) the figure was 0.224%; with `O=C(NCc1ccc(C(=O)O)o1)c1ccc(F)cc1`, 0.996%; with `O=S(=O)(c1cccc(Cl)c1)N1CCCC(Cn2cncn2)C1` (stereo not drawn), -4.36%. With `Cn1nc2c(cc1=O)CN(CC1CCCCO1)CC2` (stereo not drawn) the figure was -2.64%; with `CCOC(C)C(=O)NCc1cccc(CN2CCCCCC2)c1` (stereo not drawn), -2.85%; with `O=C(C1CCCC1)N1CCOc2cccc(F)c21`, -7.17%. With `COc1ccc(NCc2ccccc2N2CCN(C(C)=O)CC2)cn1`, the cytotoxicity at 70.5 h stood at 0.712%.

Consider `CC(=O)N1CCN(c2ccccc2CNc2ccc(C)cn2)CC1`, for which the cytotoxicity at 70.5 h is -3.33%. Under `CCN(Cc1c(F)cccc1F)C(=O)c1ccncc1O` stands -7.76%; under `CCC(C(=O)NCCc1ccn(-c2ccccc2)n1)N1CCCC1=O` (stereo not drawn), -5.95%; under `COCCCS(=O)(=O)N1CCN(Cc2cccn2C)CC1`, 43.4%. With `CCn1cnnc1CNC(=O)c1ccc(Br)cc1F` the figure was 22.3%; with `N#Cc1ncn(CC(=O)N2CCCC2c2cccs2)n1` (stereo not drawn), 22.9%. As for `CN(CC(=O)NC(C)(C)C)Cc1cccc2c1OCCO2`, the cytotoxicity at 70.5 h was 33.4%. Under `CCC(NC(=O)NC1CCN(S(C)(=O)=O)CC1)c1cccs1` (stereo not drawn) stands -11.5%; under `O=C(C1CC1)N1CCCCCC1C1CCN(c2ncccn2)CC1` (stereo not drawn), -9.64%. As for `NC(=O)N1CCCCCC1C1CCN(c2nccc(C(F)(F)F)n2)CC1` (stereo not drawn), the cytotoxicity at 70.5 h was -13.9%. With `CCc1nnc2n1CCN(c1nc(C)cc(N(C)C)n1)C2` the figure was -13.4%; with `O=C(COc1ccc(Cl)cc1)NCc1nncn1C1CC1`, -14.1%. Consider `CCn1cnnc1CCNC(=O)c1ccc(Br)cc1F`, for which the cytotoxicity at 70.5 h is -4.19%. Turning to `COCc1c(Br)cccc1NC(=O)N(C)CCO`, the cytotoxicity at 70.5 h is -12.1%. In the case of `CS(=O)(=O)NCCN1CCSCC1c1ccc(Cl)cc1` (stereo not drawn), the cytotoxicity at 70.5 h is -2.66%. With `NC(=O)N1CCCC(C(=O)NCCOc2ccc(F)cc2F)C1` (stereo not drawn) the figure was 0.645%; with `Cc1noc(C)c1NC(=O)NC1CCN(C(=O)OC(C)(C)C)CC1`, -9.26%. With `NC(=O)C1CCCN1CCCc1ccc(Cl)cc1` (stereo not drawn) the figure was -5.15%; with `O=C(NCC1(O)CCOCC1)c1ccn(-c2ccccc2F)n1`, -9.56%. Under `O=C(NCC1(O)CCSC1)c1ccn(-c2ccccc2F)n1` (stereo not drawn) stands -15.6%; under `CNC(=O)c1cccc(NCC(=O)Nc2cc(C)nn2C)c1C`, -14%; under `CCNC(=O)N1CCC(=Cc2ccccc2)CC1`, 1.05%. For the compound `Cc1oc(CNC(=O)Cc2cccc(OC(F)F)c2)cc1C(=O)O`, the cytotoxicity at 70.5 h was -7.31%. Under `C/C=C(/C)C(=O)NS(=O)(=O)c1ccc(C(F)(F)F)cc1` stands 0.976%; under `Cc1ccc(CNC(=O)NCC(=O)N2CCCC2)c(N2CCCC2)c1`, 4.74%; under `O=C(OCc1ccccc1)C1CCCN1Cc1nc(C2CC2)no1` (stereo not drawn), -17.4%. As for `Cc1noc(C)c1C(C)NC(=O)N1CCN(c2cccs2)CC1` (stereo not drawn), the cytotoxicity at 70.5 h stood at 6.76%.

In the case of `O=C(CN1CCN(c2ncnc3cccc(F)c23)CC1)N1CCCC1`, the cytotoxicity at 70.5 h was -9.51%. Under `CCc1noc(CN2CCCC2C(=O)OCc2ccccc2)n1` (stereo not drawn) stands -16.5%; under `CC(O)(CNc1ccc(Cl)c(C#N)n1)c1ccsc1` (stereo not drawn), 10.6%; under `Cn1cc(C(C)(O)CNc2ccc(Cl)c(C#N)n2)cn1` (stereo not drawn), 5.37%. With `CC(C)CCC(=O)N1CCN(C(C)c2nnc(CC(C)C)o2)CC1` (stereo not drawn) the figure was 23.3%; with `O=C(c1sccc1-n1cnnn1)N1CCCCC1`, -6.17%. With `CC(Nc1ccc(Br)cc1)c1nc(C2CC2)no1` (stereo not drawn) the figure was -1.22%. Take `CC1CCN(C(=O)c2sccc2-n2cnnn2)CC1`: the cytotoxicity at 70.5 h is -4.67%. Take `CC(C(=O)NCc1ccco1)N1CCN(Cc2nccn2C)CC1` (stereo not drawn): the cytotoxicity at 70.5 h was -5.54%.

In the case of `O=C1CCN(C(=O)NCC(c2ccccc2)c2ccccc2)CCN1`, the cytotoxicity at 70.5 h is -2.48%.

Take `CCC(=O)NCC(=O)NC(C)c1sc(-c2ccccc2F)nc1C` (stereo not drawn): the cytotoxicity at 70.5 h came to 10.3%.

Take `CCC(=O)NCC1(O)CCC(C(C)(C)C)CC1` (stereo not drawn): the cytotoxicity at 70.5 h was -4.59%.

Consider `CCC(=O)NCC(=O)NCC1(O)CCC(C(C)(C)C)CC1` (stereo not drawn), for which the cytotoxicity at 70.5 h was -7.33%.

On to `CC(C)n1cnnc1CNC(=O)c1cnn(Cc2ccccc2)c1`, for which the cytotoxicity at 70.5 h is -2.61%.

Turning to `Cc1cccc(CNc2ccc(C(=O)N3CCC(CO)CC3)cc2)c1`, the cytotoxicity at 70.5 h is -5.19%. With `CCNC(=O)CCC(=O)NCC1(O)CCC(C(C)(C)C)CC1` (stereo not drawn) the figure was -2.55%; with `CCN1CC(COC(=O)c2cccc(Br)c2)CC1=O` (stereo not drawn), -7.36%; with `O=C1CC2(CCSC2)C(=O)N1Cc1ncc(-c2cccc(F)c2)o1` (stereo not drawn), -1.19%. Turning to `CC(C)NC(=O)N1CCC[C@H]1C(=O)NCCCc1cccc(F)c1`, the cytotoxicity at 70.5 h was -5.95%. Regarding `O=C1CC2(CCSC2)C(=O)N1Cc1coc(-c2ccc(F)cc2)n1` (stereo not drawn), the cytotoxicity at 70.5 h is -3.42%.

For `CCN1CC(COC(=O)c2ccc(N(C)C)cc2F)CC1=O` (stereo not drawn), the cytotoxicity at 70.5 h was -3.33%. With `N#Cc1ccc(CN2CCN(Cc3ccncc3Cl)CC2=O)cc1` the figure was 2.38%. With `CC(C)COC(=O)N1CCCN(C(C)c2nnc(CC(C)C)o2)CC1` (stereo not drawn) the figure was -3.09%; with `CCN1CC(COC(=O)c2cc(Br)ccc2F)CC1=O` (stereo not drawn), 0.441%. With `CC1(C)CN(C(CNS(N)(=O)=O)c2ccc(Cl)cc2)CCO1` (stereo not drawn) the figure was -3.76%; with `CC(=O)N1CCN(C(C)c2nnc(CC(C)C)o2)CC1` (stereo not drawn), -4.1%. As for `NC(=O)CC1CCCN(C(=O)NCC2(c3cccs3)CCCC2)C1` (stereo not drawn), the cytotoxicity at 70.5 h was -0.84%.

For `N#Cc1ccc(CN2CCN(c3ccncc3Cl)CC2=O)cc1`, the cytotoxicity at 70.5 h is -4.03%. With `Cc1noc(C(C)Nc2ccc3c(c2)CCC3)n1` (stereo not drawn) the figure was 8.72%. Under `Cc1cc(CN(C)CC2CC(C3CCCCC3)=NO2)no1` (stereo not drawn) stands 0.975%. Under `CCOc1ccc2c(c1)C=C(C(=O)NC(C)Cn1cccn1)CO2` (stereo not drawn) stands -5.74%. With `CCCOc1ccc2c(c1)OCC(C(=O)NC(C)Cn1cccn1)=C2` (stereo not drawn), the cytotoxicity at 70.5 h was 1.23%. Under `CCCOc1ccc2c(c1)OCC(C(=O)NC(C)Cn1ccnc1)=C2` (stereo not drawn) stands -6.31%; under `Cc1cc(C)nc(N2CCc3ccc(OC(F)F)cc3C2)n1`, -2.64%; under `CS(=O)(=O)c1ccc2c(c1)N(C(=O)Cc1ccc(F)cc1)CCC2`, 14.3%. `CS(=O)(=O)c1ccc2c(c1)N(C(=O)c1cccc(F)c1)CCC2`: the cytotoxicity at 70.5 h is -4.57%.

Turning to `CCc1ccc(O)c(C(=O)N2CCN(CC(=O)N(C)C)CC2)c1`, the cytotoxicity at 70.5 h is -1.61%. With `CS(=O)(=O)c1cccc2c1CCCN2C(=O)Cc1cccc(F)c1` the figure was -2.8%; with `COc1ccc(Oc2ncccc2NC(=O)N2CCOCC2)cc1`, -6.42%. Under `CC(C)C(NC(=O)Nc1cnn(CC(N)=O)c1)c1ccc(Cl)cc1` (stereo not drawn) stands -1.5%. Take `COC(=O)C(CNC(=O)Nc1nncs1)Cc1ccc(O)cc1` (stereo not drawn): the cytotoxicity at 70.5 h is -2.82%. With `CC(Nc1nc2c(cnn2C)c(=O)[nH]1)c1ccc(F)cc1` (stereo not drawn) the figure was -2.55%; with `CC(Nc1nc2c(cnn2C)c(=O)[nH]1)c1ccc2c(c1)CCCC2` (stereo not drawn), -3.73%; with `CC(C)Sc1ccc(C(C)Nc2nc3c(cnn3C)c(=O)[nH]2)cc1` (stereo not drawn), -3.27%.

For the compound `Cn1nc2c(cc1=O)CN(Cc1nc(-c3ccoc3)no1)CC2`, the cytotoxicity at 70.5 h was -2.1%. With `Cc1cc(CN(C)C(=O)NC(C)Cc2ccc(O)cc2)no1` (stereo not drawn) the figure was 0.825%; with `CC(C(=O)Nc1cnn(CC(N)=O)c1)c1ccc(Cl)s1` (stereo not drawn), -4.91%; with `Cc1ccc(CN(CC(=O)NCC2CCOC2)c2ccc(F)cc2)o1` (stereo not drawn), -3.8%.

As to `O=C(Nc1ccc(OC(F)F)cc1)N1CCC(c2nnc[nH]2)CC1`, the cytotoxicity at 70.5 h was -2.12%. With `CCOc1cc(NC(=O)N2CCC(c3nnc[nH]3)CC2)ccc1C` the figure was -0.547%; with `Cc1cc(CN(C)CC2CCCCC2)no1`, -2%; with `CCN(Cc1ccccc1C)S(C)(=O)=O`, -3.77%. With `Cc1ccccc1CCCN(C)S(C)(=O)=O` the figure was -3.41%. Under `Cc1ccccc1CCCN(Cc1ccccn1)S(C)(=O)=O` stands -0.248%. As to `CC(C)n1nc2c(cc1=O)CN(Cc1nc(-c3ccoc3)no1)CC2`, the cytotoxicity at 70.5 h worked out at 17%. For `CCc1ccc(O)c(C(=O)N2CCCN(CC(=O)N(CC)CC)CC2)c1`, the cytotoxicity at 70.5 h is -0.346%. Under `CCCn1nc2c(cc1=O)CN(Cc1nc(-c3ccoc3)no1)CC2` stands -2.82%. With `Cc1cc(CSCc2ccccn2)on1` the figure was -1.54%; with `CCc1noc(C(C)N(C)Cc2ccc(OC)c(OC)c2)n1` (stereo not drawn), 1.83%. Under `COCc1nc(C(=O)NS(=O)(=O)c2ccc(C)c(C)c2)cs1` stands 25.8%. `CSCC(C)(O)CNC(=O)Nc1ccc(C)cc1Br` (stereo not drawn): the cytotoxicity at 70.5 h is -3.05%. Consider `Cn1ccc(C(=O)Nc2nnc(-c3ccccn3)[nH]2)cc1=O`, for which the cytotoxicity at 70.5 h is -22.2%. With `CC(C)c1nc2cc(NC(=O)Cn3ccccc3=O)ccc2o1` the figure was -3.88%. Under `CC1(C)CN(C(CNC2=NCCN2)c2ccc(Cl)cc2)CCO1` (stereo not drawn) stands -5.1%.
